Source: patent US9101627B2, “Pharmaceutical compositions containing bradykinin antagonists and hyaluronic acid, and uses thereof” (ISTITUTO LUSO FARMACO D'ITALIA S.P.A., priority 2007, dated 2015)

Experiments:
[1] = test system: experimental model of osteoarthritis induced by intra-articular injection of sodium monoiodoacetate (MIA); assay: MIA-induced osteoarthritis model, incapacitance test (weight imbalance between paws); assay type: in vivo; conditions: rat; for time of maximal inhibitory effect after administration / reduction of the pain caused by osteoarthritis: 3 μg/25 μl i.a., single compound; for reduction of the pain caused by osteoarthritis: 7 days after MIA; for inhibitory effect at higher dose: 10 μg/25 μl i.a. versus 3 μg/25 μl; for duration of antinociceptive effect: single compound i.a.
Protocol: The activity of MEN16132, icatibant and hyaluronic acid was measured in an experimental model of osteoarthritis induced by intra-articular injection of sodium monoiodoacetate (MIA) which inhibits glycolysis in the chondrocytes, thus causing damage and death to those cells with consequent degeneration of the joint surface, in a very similar way to human osteoarthritis.
MIA (1 mg/25 μl) was injected into the intra-articular space of the right knee of the rat, while 25 μl of saline was administered to the left knee as internal control.
The administration of MIA causes pain, difficulty of walking and inability to bear weight on the paw corresponding to the treated knee; the weight of the body therefore falls mainly on the left paw, to an extent directly proportional to the pain perceived. This effect persists for many weeks. The imbalance in weight on the two weight-bearing paws, evaluated in a non-invasive way with the incapacitance test, measures the pain resulting from the joint damage (osteoarthritis) induced by MIA.
The purpose of this test was to evaluate the protective effect of bradykinin B2 receptor antagonists against experimental osteoarthritis, and to establish the effect of co-administration of hyaluronic acid.
Seven days after the treatment with MIA, the compounds under study were injected, and the test was repeated at various times to measure the painkilling effect and its duration.

[2] = test system: patients with OA of the knee; conditions: intra-articular, 3×500 μg injections one week apart; cited from earlier work
[3] = test system: patients with symptomatic OA of the knee; conditions: 58 patients, single intra-articular administration 90 μg/1 ml; cited from earlier work

Structure (SMILES) | time of maximal inhibitory effect after administration [1] [days] | reduction of the pain caused by osteoarthritis [1] [%] | inhibitory effect at higher dose [1] | duration of antinociceptive effect [1] | duration of analgesic response after the treatment [2] | side effects [2] | intensity of pain in the knee versus placebo [3]
NC(N)=NCCC[C@@H](N)C(=O)N[C@@H](CCCN=C(N)N)C(=O)N1CCC[C@H]1C(=O)N1C[C@H](O)C[C@H]1C(=O)NCC(=O)N[C@@H](Cc1cccs1)C(=O)N[C@@H](CO)C(=O)N1Cc2ccccc2C[C@@H]1C(=O)N1[C@H](C(=O)N[C@@H](CCCN=C(N)N)C(=O)O)C[C@@H]2CCCC[C@@H]21 [icatibant, H-D-Arg-Arg-Pro-Hyp-Gly-Thi-Ser-D-Tic-Oic-Arg-OH] | 3 | 40 | No further significant increase in inhibitory effect | lasted for over a week | up to 3 months | negligible or no side effects | reduced the intensity of pain in the knee to a greater extent than the placebo
Cc1cc(C)c2cccc(OCc3c(Cl)ccc(S(=O)(=O)NC4(C(=O)N5CCN(C(=O)[C@@H](N)CCC[N+](C)(C)C)CC5)CCOCC4)c3Cl)c2n1 [MEN16132, (4-(S)-Amino-5-(4-{4-[2,4-dichloro-3-(2,4-dimethyl-quinoline-8-yloxymethyl)-benzenesulphonylamino]-tetrahydro-pyran-4-carbonyl}-piperazin-1-yl)-5-oxo-pentyl]-trimethyl-ammonium] | 3 | 55 | No further significant increase in inhibitory effect | lasted for over a week | – | – | –
